# Source: doi:10.1101/2021.10.07.463234v2 (biorxiv, 2021)
# Structures can show the parent of a compound that is named as a salt.
# Target: SARS-CoV-2 Mac1 (Severe acute respiratory syndrome coronavirus 2, UniProt P0DTD1)
# Test: biochemical
# Settings: for inhibition at 100 µM: read-out: %inhibition; for %inhibition: 100 µM, inhibitor
SMILES,inhibition at 100 µM,%inhibition
COc1ccc(-c2ccc3cc(C(=O)O)ccc3c2)cc1[C@]12C[C@H]3C[C@H](C[C@H](C3)C1)C2 [Adapalene],27.7%,
CC(C)(C)C(=O)OCOP(=O)(COCCn1cnc2c(N)ncnc21)OCOC(=O)C(C)(C)C [Adefovir Dipivoxil],37.1%,
Nc1[nH]cnc2ncnc1-2 [Adenine HCl],9.72%,
Nc1ncnc2nc[nH]c12 [Adenine sulfate],4.13%,
Nc1ncnc2c1ncn2[C@@H]1O[C@H](CO)[C@@H](O)[C@H]1O [Adenosine],0%,
CCN(CC)CCOC(=O)C(c1ccccc1)c1ccccc1 [Adiphenine HCl],6.54%,
CNCC(=O)c1ccc(O)c(O)c1 [Adrenalone HCl],6.88%,
CN(C)C/C=C/C(=O)Nc1cc2c(Nc3ccc(F)c(Cl)c3)ncnc2cc1O[C@H]1CCOC1 [Afatinib (BIBW2992) Dimaleate],,21%
CN(C)C/C=C/C(=O)Nc1cc2c(Nc3ccc(F)c(Cl)c3)ncnc2cc1O[C@H]1CCOC1 [Afatinib (BIBW2992)],,0.3349%
Cc1ccccc1-n1c(CF)nc2ccc(N)cc2c1=O [Afloqualone],0%,
Cn1ncc(Cl)c1-c1cc(C(=O)N[C@H](CN)Cc2cccc(F)c2)sc1Cl [Afuresertib (GSK2110183)],0%,
COc1ccc2cccc(CCNC(C)=O)c2c1 [Agomelatine],36.5%,
CC[C@H]1[C@@H]2C[C@H]3[C@@H]4N(C)c5ccccc5[C@]45C[C@@H]([C@H]2[C@H]5O)N3[C@@H]1O [Ajmaline],18.1%,
CCNC(=O)[C@@H]1CCCN1C(=O)[C@H](CCCN=C(N)N)NC(=O)[C@H](CC(C)C)NC(=O)[C@@H](C)NC(=O)[C@H](Cc1ccc(O)cc1)NC(=O)[C@H](CO)NC(=O)[C@H](Cc1c[nH]c2ccccc12)NC(=O)[C@H](Cc1cnc[nH]1)NC(=O)[C@@H]1CCC(=O)N1 [Alarelin Acetate],0.14%,
CCC[S+]([O-])c1ccc2[nH]c(NC(=O)OC)nc2c1 (stereo not drawn) [Albendazole Oxide],28%,
CCCSc1ccc2[nH]c(NC(=O)OC)nc2c1 [Albendazole],0%,
CN1CCC(=C2c3ccccc3CCn3c(C=O)cnc32)CC1 [Alcaftadine],0%,
CCc1cc2c(cc1N1CCC(N3CCOCC3)CC1)C(C)(C)c1[nH]c3cc(C#N)ccc3c1C2=O [Alectinib hydrochloride],9.69%,
NCCCC(O)(P(=O)(O)O)P(=O)(O)O [Alendronate sodium trihydrate],1.69%,
C=C1/C(=C\C=C2/CCC[C@]3(C)[C@@H]([C@H](C)CCCC(C)C)CC[C@@H]23)C[C@@H](O)C[C@@H]1O [Alfacalcidol],0%,
COc1cc2nc(N(C)CCCNC(=O)C3CCCO3)nc(N)c2cc1OC (stereo not drawn) [Alfuzosin HCl],0%,
C=CCc1cc(OC)c(O)c(C(=O)NCCO)c1 [Alibendol],15.2%,
CC(CN(C)C)CN1c2ccccc2Sc2ccccc21 (stereo not drawn) [Alimemazine Tartrate],12.1%,
COc1cc(Nc2ncc3c(n2)-c2ccc(Cl)cc2C(c2c(F)cccc2OC)=NC3)ccc1C(=O)O [Alisertib (MLN8237)],8.76%,
COCCCOc1cc(C[C@@H](C[C@H](N)[C@@H](O)C[C@H](C(=O)NCC(C)(C)C(N)=O)C(C)C)C(C)C)ccc1OC [Aliskiren Hemifumarate],0%,

SMILES,inhibition at 100 µM,%inhibition
C=CCN1CCCC1CNC(=O)c1cc2nn[nH]c2cc1OC (stereo not drawn) [Alizapride HCl],0%,
C=CCNC(N)=S [Allylthiourea],7.98%,
CN(C)CCc1c[nH]c2ccc(CS(=O)(=O)N3CCCC3)cc12 [Almotriptan Malate],9.31%,
Cn1c(=O)cc(N2CCC[C@@H](N)C2)n(Cc2ccccc2C#N)c1=O [Alogliptin],12.8%,
Cc1[nH]cnc1CN1CCc2c(c3ccccc3n2C)C1=O [Alosetron Hydrochloride],16.8%,
CCOC(=O)[C@H]1O[C@@H]1C(=O)N[C@@H](CC(C)C)C(=O)NCCC(C)C [Aloxistatin],0%,
CCCCC[C@H](O)/C=C/[C@H]1[C@H](O)CC(=O)[C@@H]1CCCCCCC(=O)O [Alprostadil],0%,
C=CC[C@]1(O)CC[C@H]2[C@@H]3CCC4=CC(=O)CCC4=C3C=C[C@@]21C [Altrenogest],0%,
CN(C)c1nc(N(C)C)nc(N(C)C)n1 [Altretamine],19.5%,
Cc1c(-c2ccnn2C)cc(C(=O)NCc2ccc(S(C)(=O)=O)cn2)c(=O)n1-c1cccc(C(F)(F)F)c1 [Alvelestat (AZD9668)],0%,
CCN(CCCc1ccccc1)CCCc1ccccc1 [Alverine Citrate],8.25%,
C[C@H]1CN(C[C@H](Cc2ccccc2)C(=O)NCC(=O)O)CC[C@@]1(C)c1cccc(O)c1 [Alvimopan dihydrate],12.8%,
NC12CC3CC(CC(C3)C1)C2 [Amantadine HCl],0%,
COC(c1ccccc1)(c1ccccc1)[C@H](Oc1nc(C)cc(C)n1)C(=O)O [Ambrisentan],0%,
Nc1c(Br)cc(Br)cc1CN[C@H]1CC[C@H](O)CC1 [Ambroxol HCl],,9.799%
Nc1c(Br)cc(Br)cc1CN[C@H]1CC[C@H](O)CC1 [Ambroxol],,0%
Cc1cccc(C)c1N(CC(=O)Nc1ccc(-c2ncon2)cc1)C(=O)C1CCS(=O)(=O)CC1 [Amenamevir],8.46%,
Nc1c(CC(=O)O)cccc1C(=O)c1ccccc1 [Amfenac Sodium Monohydrate],4.46%,
NCCCNCCSP(=O)(O)O [Amifostine],0%,
NCC[C@H](O)C(=O)N[C@@H]1C[C@H](N)[C@@H](O[C@H]2O[C@H](CN)[C@@H](O)[C@H](O)[C@H]2O)[C@H](O)[C@H]1O[C@H]1O[C@H](CO)[C@@H](O)[C@H](N)[C@H]1O [Amikacin disulfate],0%,
N=C(N)NC(=O)c1nc(Cl)c(N)nc1N [Amiloride HCl dihydrate],,4.635%
N=C(N)NC(=O)c1nc(Cl)c(N)nc1N [Amiloride HCl],,0%
CCC1(c2ccc(N)cc2)CCC(=O)NC1=O (stereo not drawn) [Aminoglutethimide],17.3%,
N=C(N)NN [Aminoguanidine hydrochloride],4.16%,
Cn1c(=O)c2[nH]cnc2n(C)c1=O [Aminophylline],5.61%,

SMILES,inhibition at 100 µM,%inhibition
Nc1nccs1 [Aminothiazole],1.18%,
CCN1CCCC1CNC(=O)c1cc(S(=O)(=O)CC)c(N)cc1OC (stereo not drawn) [Amisulpride],7.08%,
CN(C)CCC=C1c2ccccc2CCc2ccccc21 [Amitriptyline HCl],0%,
CCOC(=O)C1=C(COCCN)NC(C)=C(C(=O)OC)C1c1ccccc1Cl (stereo not drawn) [Amlodipine Besylate],,25.29%
CCOC(=O)C1=C(COCCN)NC(C)=C(C(=O)OC)C1c1ccccc1Cl (stereo not drawn) [Amlodipine],25.5%,
CC1(C)[C@@H](O[C@H]2O[C@H](C(=O)O)[C@@H](O)[C@H](O)[C@H]2O[C@@H]2O[C@H](C(=O)O)[C@@H](O)[C@H](O)[C@H]2O)CC[C@]2(C)[C@H]3C(=O)C=C4[C@@H]5C[C@@](C)(C(=O)O)CC[C@]5(C)CC[C@@]4(C)[C@]3(C)CC[C@@H]12 [Ammonium Glycyrrhizinate],0%,
CC(O)C(=O)O (stereo not drawn) [Ammonium lactate],16.4%,
CCN(CC)Cc1cc(Nc2ccnc3cc(Cl)ccc23)ccc1O [Amodiaquine dihydrochloride dihydrate],,0%
CCN(CC)Cc1cc(Nc2ccnc3cc(Cl)ccc23)ccc1O [Amodiaquine hydrochloride],,7.946%
CN(C)CCN1C(=O)c2cccc3cc(N)cc(c23)C1=O [Amonafide],16.3%,
CCC(C)(C)c1ccc(CC(C)CN2C[C@@H](C)O[C@@H](C)C2)cc1 (stereo partly drawn) [Amorolfine HCl],6.98%,
CC1(C)S[C@@H]2[C@H](NC(=O)[C@H](N)c3ccc(O)cc3)C(=O)N2[C@H]1C(=O)O [Amoxicillin Sodium],,14.1%
CC1(C)S[C@@H]2[C@H](NC(=O)[C@H](N)c3ccc(O)cc3)C(=O)N2[C@H]1C(=O)O [Amoxicillin trihydrate],,5.69%
CC1(C)S[C@@H]2[C@H](NC(=O)[C@H](N)c3ccc(O)cc3)C(=O)N2[C@H]1C(=O)O [Amoxicillin],,9.546%
C[C@@H]1[C@H](O)[C@@H](C)/C=C/C=C/C=C/C=C/C=C/C=C/C=C/[C@H](O[C@@H]2O[C@H](C)[C@@H](O)[C@H](N)[C@@H]2O)C[C@@H]2O[C@](O)(C[C@@H](O)C[C@@H](O)[C@H](O)CC[C@@H](O)C[C@@H](O)CC(=O)O[C@H]1C)C[C@H](O)[C@H]2C(=O)O [Amphotericin B],2.16%,
CC1(C)S[C@@H]2[C@H](NC(=O)[C@H](N)c3ccccc3)C(=O)N2[C@H]1C(=O)O [Ampicillin Trihydrate],,20.11%
CC1(C)S[C@@H]2[C@H](NC(=O)[C@H](N)c3ccccc3)C(=O)N2[C@H]1C(=O)O [Ampicillin sodium],,0%
CCOC(=O)OC(C)OC1=C(C(=O)Nc2ccccn2)N(C)S(=O)(=O)c2ccccc21 (stereo not drawn) [Ampiroxicam],5.86%,
CC(C)CN(C[C@@H](O)[C@H](Cc1ccccc1)NC(=O)O[C@H]1CCOC1)S(=O)(=O)c1ccc(N)cc1 [Amprenavir],0%,
CCCc1ncc(C[n+]2ccccc2C)c(N)n1 [Amprolium HCl],0%,
COc1cc(NS(C)(=O)=O)ccc1Nc1c2ccccc2nc2ccccc12 [Amsacrine hydrochloride],27%,
S=C(NCc1ccc2c(c1)OCO2)N1CCN(c2ncnc3c2oc2ccccc23)CC1 [Amuvatinib (MP-470)],24.8%,
O=C1CN2Cc3c(ccc(Cl)c3Cl)N=C2N1 [Anagrelide HCl],0%,
CN(C)N(C)C(=O)[C@@]1(Cc2ccccc2)CCCN(C(=O)[C@@H](Cc2c[nH]c3ccccc23)NC(=O)C(C)(C)N)C1 [Anamorelin],1.6%,
CC(C)(C#N)c1cc(Cn2cncn2)cc(C(C)(C)C#N)c1 [Anastrozole],10.3%,
